Laboratory results: the Kinase Knowledgebase extract (Sharma et al. 2016)

Target: EGFR (human) (UniProt P00533)
Conditions: a431

Chain of EGFR (human) (P00533 whole entry, looked up): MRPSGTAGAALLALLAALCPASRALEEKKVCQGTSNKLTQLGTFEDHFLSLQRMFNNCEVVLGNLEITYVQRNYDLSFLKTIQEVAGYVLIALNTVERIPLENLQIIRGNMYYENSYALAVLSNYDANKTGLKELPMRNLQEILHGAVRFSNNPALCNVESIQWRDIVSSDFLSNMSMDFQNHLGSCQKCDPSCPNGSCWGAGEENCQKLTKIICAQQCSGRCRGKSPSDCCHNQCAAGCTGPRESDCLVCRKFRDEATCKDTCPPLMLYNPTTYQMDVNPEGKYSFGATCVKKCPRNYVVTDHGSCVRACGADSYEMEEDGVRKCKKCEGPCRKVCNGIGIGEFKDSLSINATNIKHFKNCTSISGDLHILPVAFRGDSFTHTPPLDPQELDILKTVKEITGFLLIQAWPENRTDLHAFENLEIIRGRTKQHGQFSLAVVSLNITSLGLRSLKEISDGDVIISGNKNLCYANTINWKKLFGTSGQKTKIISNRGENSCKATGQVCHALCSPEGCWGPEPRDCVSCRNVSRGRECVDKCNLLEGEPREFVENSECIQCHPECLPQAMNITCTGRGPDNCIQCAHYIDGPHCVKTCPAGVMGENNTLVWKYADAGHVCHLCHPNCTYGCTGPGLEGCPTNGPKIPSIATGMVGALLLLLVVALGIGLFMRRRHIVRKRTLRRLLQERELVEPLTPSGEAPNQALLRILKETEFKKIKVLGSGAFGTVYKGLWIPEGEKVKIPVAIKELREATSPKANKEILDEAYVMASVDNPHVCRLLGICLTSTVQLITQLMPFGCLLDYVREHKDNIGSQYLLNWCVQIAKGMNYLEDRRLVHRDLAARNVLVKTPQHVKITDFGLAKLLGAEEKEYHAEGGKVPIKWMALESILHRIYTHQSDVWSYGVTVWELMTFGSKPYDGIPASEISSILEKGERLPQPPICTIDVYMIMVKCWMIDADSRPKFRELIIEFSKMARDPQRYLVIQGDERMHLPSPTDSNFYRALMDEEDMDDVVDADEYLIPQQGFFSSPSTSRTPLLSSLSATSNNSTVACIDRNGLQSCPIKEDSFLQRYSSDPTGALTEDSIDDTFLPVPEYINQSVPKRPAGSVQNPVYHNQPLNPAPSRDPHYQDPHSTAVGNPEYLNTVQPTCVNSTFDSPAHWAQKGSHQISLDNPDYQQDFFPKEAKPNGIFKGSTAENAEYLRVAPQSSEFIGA

SMILES	IC50 [µM]
Cc1nc2cc3nc(-c4ccccc4)cnc3cc2n1C	> 30
Cc1nc2cc3nc(-c4cc[cH-]c4)cnc3cc2n1C.[Fe+2].c1cc[cH-]c1	> 30
c1ccc(-c2cnc3cc4ccccc4cc3n2)cc1	> 100
Cc1nc2cc3ncc(-c4cccs4)nc3cc2n1C	> 30
Cc1cc2ncc(-c3cc[cH-]c3)nc2cc1C.[Fe+2].c1cc[cH-]c1	> 30
Cc1nc2cc3ncc(-c4ccccc4)nc3cc2n1C	> 30
Cc1cc2ncc(-c3ccccc3)nc2cc1C	> 100
Cc1cc2ncc(-c3cccs3)nc2cc1C	> 30
COc1cc2ncc(-c3ccccc3)nc2cc1OC	> 100
Cc1nc2cc3nc(-c4cccs4)cnc3cc2n1C	> 30
